Legend:
Format in all cases: in vivo
[1] = test system: diamondback moth (Plutella xylostella); experiment: Test A: control of diamondback moth on radish plant, foliar spray; conditions: sprayed at 50 ppm; neonate larvae on radish; assessed after 6 days; replicated three times
Excerpt: For evaluating control of diamondback moth (Plutella xylostella) the test unit consisted of a small open container with a 12-14-day-old radish plant inside. This was pre-infested with about 50 neonate larvae that were dispensed into the test unit via corn-cob grits using a bazooka inoculator. The larvae moved onto the test plant after being dispensed into the test unit.
(§1) Test compounds were formulated using a solution containing 10% acetone, 90% water and 300 ppm X-77™ Spreader Lo-Foam Formula non-ionic surfactant containing alkylarylpolyoxyethylene, free fatty acids, glycols and isopropanol (Loveland Industries, Inc. Greeley, Colo., USA). The formulated compounds were applied in 1 mL of liquid through a SUJ2 atomizer nozzle with ⅛ JJ custom body (Spraying Systems Co. Wheaton, Ill., USA) positioned 1.27 cm (0.5 inches) above the top of each test unit. All experimental compounds in these tests were sprayed at 50 ppm, and the test was replicated three times. After spraying of the formulated test compound, each test unit was allowed to dry for 1 h and then a black, screened cap was placed on top. The test units were held for 6 days in a growth chamber at 25° C. and 70% relative humidity. Plant feeding damage was then visually assessed based on foliage consumed and a pest mortality rating was also counted and calculated for each test unit.

[2] = test system: fall armyworm (Spodoptera frugiperda); experiment: Test B: control of fall armyworm on corn (maize) plant, foliar spray; conditions: sprayed at 50 ppm; 1-day-old larvae on corn; replicated three times
Description: as §1
For evaluating control of fall armyworm (Spodoptera frugiperda) the test unit consisted of a small open container with a 4-5-day-old corn (maize) plant inside. This was pre-infested (using a core sampler) with 10-15 1-day-old larvae on a piece of insect diet. Test compounds were formulated and sprayed at 50 ppm as described for Test A and replicated three times. After spraying, the test units were maintained in a growth chamber and then the control efficacy was rated for each test unit as described for Test A.

[3] = test system: western flower thrips (Frankliniella occidentalis); experiment: Test E: control of western flower thrips on Soleil bean plant, contact and/or systemic; conditions: adult thrips, assessed after 6 days, replicated three times
Description: as §1
For evaluating control of the western flower thrips (Frankliniella occidentalis) through contact and/or systemic means, the test unit consisted of a small open container with a 5-7 day old Soleil Bean plant inside. Test compounds were formulated and sprayed as described for Test A. All experimental compounds in these tests were sprayed at 250 or 50 ppm as noted, and the test was replicated three times. After spraying, the test units were allowed to dry for 1 hour and then 22-27 adult thrips were added to each unit and then a black, screened cap was placed on top. The test units were held for 6 days at 25° C. and 45-55% relative humidity. A mortality rating was assessed along with a plant damage rating for each test unit.

SMILES | control efficacy (feeding damage or mortality): very good to excellent levels [1] | control efficacy (feeding damage or mortality): very good to excellent levels [2] | control efficacy (feeding damage or mortality): very good to excellent levels ([3]; sprayed at 250 ppm) | control efficacy (feeding damage or mortality): very good to excellent levels ([3]; sprayed at 50 ppm)
O=C(NCC(Cl)CCCCl)c1ccc(C2=NOC(c3cc(Cl)cc(Cl)c3)(C(F)(F)F)C2)c2ccccc12 (mixture of isomers) [Compound 14] | 20% or less feeding damage or 80% or more mortality | 20% or less feeding damage or 80% or more mortality | – | –
CCC(CO)NC(=O)c1ccc(C2=NOC(c3cccc(C(F)(F)F)c3)(C(F)(F)F)C2)c2ccccc12 (mixture of isomers) [Compound 16] | 20% or less feeding damage or 80% or more mortality | 20% or less feeding damage or 80% or more mortality | – | –
CC(NC(=O)c1ccc(C2=NOC(c3cc(C(F)(F)F)cc(C(F)(F)F)c3)(C(F)(F)F)C2)c2ccccc12)C(=O)O (mixture of isomers) [Compound 31] | 20% or less feeding damage or 80% or more mortality | 20% or less feeding damage or 80% or more mortality | 20% or less feeding damage or 80% or more mortality | –
CC(NC(=O)c1ccc(C2=NOC(c3cc(Cl)cc(C(F)(F)F)c3)(C(F)(F)F)C2)c2ccccc12)C(=O)O (mixture of isomers) [Compound 32] | 20% or less feeding damage or 80% or more mortality | 20% or less feeding damage or 80% or more mortality | – | –
CC(NC(=O)c1ccc(C2=NOC(c3cc(Br)cc(C(F)(F)F)c3)(C(F)(F)F)C2)c2ccccc12)C(=O)O (mixture of isomers) [Compound 38] | 20% or less feeding damage or 80% or more mortality | 20% or less feeding damage or 80% or more mortality | – | –
O=C(O)CNC(=O)c1ccc(C2=NOC(c3cc(C(F)(F)F)cc(C(F)(F)F)c3)(C(F)(F)F)C2)c2ccccc12 (racemic) [Compound 15] | 20% or less feeding damage or 80% or more mortality | 20% or less feeding damage or 80% or more mortality | – | –
O=C(NCCCSCC(F)(F)F)c1ccc(C2=NOC(c3cccc(C(F)(F)F)c3)(C(F)(F)F)C2)c2ccccc12 (racemic) [Compound 21] | 20% or less feeding damage or 80% or more mortality | 20% or less feeding damage or 80% or more mortality | – | –
O=C(NCCn1ccc(C(F)(F)F)n1)c1ccc(C2=NOC(c3cccc(C(F)(F)F)c3)(C(F)(F)F)C2)c2ccccc12 (centres unmarked) [Compound 17] | 20% or less feeding damage or 80% or more mortality | 20% or less feeding damage or 80% or more mortality | – | –
O=C(NCCn1cncn1)c1ccc(C2=NOC(c3cccc(C(F)(F)F)c3)(C(F)(F)F)C2)c2ccccc12 (centres unmarked) [Compound 18] | 20% or less feeding damage or 80% or more mortality | 20% or less feeding damage or 80% or more mortality | – | –
CC1(C)OCC(CNC(=O)c2ccc(C3=NOC(c4cccc(C(F)(F)F)c4)(C(F)(F)F)C3)c3ccccc23)O1 (centres unmarked) [Compound 19] | 20% or less feeding damage or 80% or more mortality | 20% or less feeding damage or 80% or more mortality | – | –
O=C(NCC1CCCO1)c1ccc(C2=NOC(c3cccc(C(F)(F)F)c3)(C(F)(F)F)C2)c2ccccc12 (centres unmarked) [Compound 20] | 20% or less feeding damage or 80% or more mortality | 20% or less feeding damage or 80% or more mortality | – | –
O=C(NCC1CCCO1)c1ccc(C2=NOC(c3cc(C(F)(F)F)cc(C(F)(F)F)c3)(C(F)(F)F)C2)c2ccccc12 (centres unmarked) [Compound 27] | 20% or less feeding damage or 80% or more mortality | 20% or less feeding damage or 80% or more mortality | – | –
CSCCNC(=O)CNC(=O)c1ccc(C2=NOC(c3cc(Cl)cc(Cl)c3)(C(F)(F)F)C2)c2ccccc12 (centres unmarked) [Compound 48] | 20% or less feeding damage or 80% or more mortality | – | 20% or less feeding damage or 80% or more mortality | –
O=C(CNC(=O)c1ccc(C2=NOC(c3cc(Cl)cc(Cl)c3)(C(F)(F)F)C2)c2ccccc12)NC1CCCCC1 (centres unmarked) [Compound 51] | 20% or less feeding damage or 80% or more mortality | 20% or less feeding damage or 80% or more mortality | – | –
O=C(CNC(=O)c1ccc(C2=NOC(c3cc(Cl)cc(Cl)c3)(C(F)(F)F)C2)c2ccccc12)NC1CCCC1 (centres unmarked) [Compound 52] | 20% or less feeding damage or 80% or more mortality | 20% or less feeding damage or 80% or more mortality | – | –
O=C(CNC(=O)c1ccc(C2=NOC(c3cccc(C(F)(F)F)c3)(C(F)(F)F)C2)c2ccccc12)NC1CC1 (centres unmarked) [Compound 54] | 20% or less feeding damage or 80% or more mortality | 20% or less feeding damage or 80% or more mortality | – | –
O=C(CNC(=O)c1ccc(C2=NOC(c3cccc(Br)c3)(C(F)(F)F)C2)c2ccccc12)NCC1CC1 (centres unmarked) [Compound 56] | 20% or less feeding damage or 80% or more mortality | 20% or less feeding damage or 80% or more mortality | – | –
O=C(CNC(=O)c1ccc(C2=NOC(c3cccc(OC(F)(F)F)c3)(C(F)(F)F)C2)c2ccccc12)NCC1CC1 (centres unmarked) [Compound 60] | 20% or less feeding damage or 80% or more mortality | 20% or less feeding damage or 80% or more mortality | – | –
O=C(NCC(=O)N1CCCCC1)c1ccc(C2=NOC(c3cc(Cl)cc(Cl)c3)(C(F)(F)F)C2)c2ccccc12 (centres unmarked) [Compound 89] | 20% or less feeding damage or 80% or more mortality | – | 20% or less feeding damage or 80% or more mortality | –
O=C(NCC(=O)N1CCCC1C(F)(F)F)c1ccc(C2=NOC(c3cc(Cl)cc(Cl)c3)(C(F)(F)F)C2)c2ccccc12 (centres unmarked) [Compound 91] | 20% or less feeding damage or 80% or more mortality | 20% or less feeding damage or 80% or more mortality | – | –
COC(=O)[C@H]1CCCN1C(=O)c1ccc(C2=NOC(c3cc(Cl)cc(Cl)c3)(C(F)(F)F)C2)c2ccccc12 (some centres unmarked) [Compound 98] | 20% or less feeding damage or 80% or more mortality | – | 20% or less feeding damage or 80% or more mortality | –
O=C(NCC(F)(F)F)[C@H]1CCCN1C(=O)c1ccc(C2=NOC(c3cc(Cl)cc(Cl)c3)(C(F)(F)F)C2)c2ccccc12 (some centres unmarked) [Compound 102] | 20% or less feeding damage or 80% or more mortality | 20% or less feeding damage or 80% or more mortality | – | –
CCNC(=O)[C@H]1CCCN1C(=O)c1ccc(C2=NOC(c3cc(Cl)cc(Cl)c3)(C(F)(F)F)C2)c2ccccc12 (some centres unmarked) [Compound 106] | 20% or less feeding damage or 80% or more mortality | – | 20% or less feeding damage or 80% or more mortality | 20% or less feeding damage or 80% or more mortality
Cn1ccc2c(C(=O)NCC[S+](C)[O-])ccc(C3=NOC(c4cc(Cl)cc(Cl)c4)(C(F)(F)F)C3)c21 (centres unmarked) [Compound 111] | 20% or less feeding damage or 80% or more mortality | 20% or less feeding damage or 80% or more mortality | – | –

From patent US9095138B2, “Isoxazoline insecticides” (E.I. du Pont de Nemours and Company, priority 2007, dated 2015)
